Data published in US11845749B1, “Substituted pyrido[4′,3′:5,6]pyrazino[1,2-a]indoles as anticancer agents” (KING FAISAL UNIVERSITY, priority 2023, dated 2023).

How the values were obtained:
MIAPaCa-2 (pancreas) = experiment: In vitro cytotoxic activity (MTT) assay, MIAPaCa-2; assay type: cell-based; conditions: Homo sapiens, MIA PaCa-2, cells exposed for 96 hours, read-out: IC50, 50% inhibition of cell proliferation
Procedure: (§1) Compounds 1-12 were screened for their in vitro cytotoxic activity utilizing a 3-(4,5-dimethyl-thiazol-2-yl)-2,5-diphenyltetrazolium bromide (MTT) assay against selected cancer human cell lines consisting of PC3 (prostate), HCT116 (colon), A375 (melanoma), H1299 (lung), MIAPaCa-2 (pancreas), HL60 (leukemia), MCF7 (breast), MDA-MB-231 (breast) (T. Mosmann, J. Immunol. Meth., 1983, 65, 55-63). The cells were cultured at 37° C. in RMPI1640 medium supplemented with 10% fetal bovine serum, 50 IU/mL penicillin, and 50 μg/mL streptomycin in a 5% CO2 incubator. All cells were sub-cultured 3 times/week by trypsinisation. Viable cells were seeded and allowed to adhere for 12 h before a test drug was added in 96-well plates at an initial density of 1.0×10^5 cells/mL. Tumour cell lines were separately exposed to various concentrations of the tested compounds followed by incubation at a temperature of 37° C. during 96 h inside a medium of fresh RMPI 1640. Cells were subsequently incubated at 37° C. using MTT at 0.5 mg/mL during 4 h. After removal of supernatant, formazan crystals were dissolved in isopropanol and the optical density was measured at 570 nm. CX-4945 was used as a positive control.

PC3 (prostate) = experiment: In vitro cytotoxic activity (MTT) assay, PC3; assay type: cell-based; conditions: Homo sapiens, Prostate cell, cells exposed for 96 hours, read-out: IC50, 50% inhibition of cell proliferation
Procedure: as §1

A375 (melanoma) = experiment: In vitro cytotoxic activity (MTT) assay, A375; assay type: cell-based; conditions: Homo sapiens, A-375, cells exposed for 96 hours, read-out: IC50, 50% inhibition of cell proliferation
Procedure: as §1

MCF7 (breast) = experiment: In vitro cytotoxic activity (MTT) assay, MCF7; assay type: cell-based; conditions: Homo sapiens, cells exposed for 96 hours, read-out: IC50, 50% inhibition of cell proliferation
Procedure: as §1

H1299 (lung) = experiment: In vitro cytotoxic activity (MTT) assay, H1299; assay type: cell-based; conditions: Homo sapiens, NCI-H1299, cells exposed for 96 hours, read-out: IC50, 50% inhibition of cell proliferation
Procedure: as §1

recombinant human CK2 = biological target: T1, recombinant human CK2 (Homo sapiens, UniProt P68400); experiment: CK2 Kinase Assay (33P-ATP, filter plate); assay type: biochemical; conditions: final ATP concentration 15 μM, 10 min at 30° C.; read-out: protein kinase CK2 IC50
T1 construct: purchased Millipore
Procedure: CK2 Kinase Assay was conducted using the protocol as described in Pierre F. et al; J. Med. Chem. 2011, 54, 635-654. The tested compounds in aqueous solution were added at a volume of 10 μL to a reaction mixture comprising 10 μL of assay dilution buffer (ADB; 20 mM MOPS, pH 7.2, 25 mM β-glycerol phosphate, 5 mM EGTA, 1 mM sodium orthovanadate, and 1 mM dithiothreitol), 10 μL of substrate peptide (RRRDDDSDDD, dissolved in ADB at a concentration of 1 mM), 10 μL of recombinant human CK2 (RRfββ-holoenzyme, 25 ng dissolved in ADB; Millipore). Reactions were initiated by the addition of 10 μL of ATP solution (90% 75 mMMgCl2, 75 μM ATP (final ATP concentration:15 μM) dissolved in ADB; 10% [γ-33P] ATP (stock 1mCi/100 μL; 3000 Ci/mmol (Perkin-Elmer) and maintained for 10 min at 30° C. The reactions were quenched with 100 μL of 0.75% phosphoric acid and then transferred to and filtered through a phosphor cellulose filter plate (Millipore). After washing each well five times with 0.75% phosphoric acid, the plate was dried under vacuum for 5 min and, following the addition of 15 μL of scintillation fluid to each well, the residual radioactivity was measured using a Wallac […]. The IC50 values were derived from eight concentrations of test inhibitors.

HL60 (leukemia) = experiment: In vitro cytotoxic activity (MTT) assay, HL60; assay type: cell-based; conditions: Homo sapiens, HL-60, cells exposed for 96 hours, read-out: IC50, 50% inhibition of cell proliferation
Procedure: as §1

HCT116 (colon) = experiment: In vitro cytotoxic activity (MTT) assay, HCT116; assay type: cell-based; conditions: Homo sapiens, HCT-116, cells exposed for 96 hours, read-out: IC50, 50% inhibition of cell proliferation
Procedure: as §1

MDA-MB-231 (breast) = experiment: In vitro cytotoxic activity (MTT) assay, MDA-MB-231; assay type: cell-based; conditions: Homo sapiens, cells exposed for 96 hours, read-out: IC50, 50% inhibition of cell proliferation
Procedure: as §1

T1 sequence (P68400 whole entry): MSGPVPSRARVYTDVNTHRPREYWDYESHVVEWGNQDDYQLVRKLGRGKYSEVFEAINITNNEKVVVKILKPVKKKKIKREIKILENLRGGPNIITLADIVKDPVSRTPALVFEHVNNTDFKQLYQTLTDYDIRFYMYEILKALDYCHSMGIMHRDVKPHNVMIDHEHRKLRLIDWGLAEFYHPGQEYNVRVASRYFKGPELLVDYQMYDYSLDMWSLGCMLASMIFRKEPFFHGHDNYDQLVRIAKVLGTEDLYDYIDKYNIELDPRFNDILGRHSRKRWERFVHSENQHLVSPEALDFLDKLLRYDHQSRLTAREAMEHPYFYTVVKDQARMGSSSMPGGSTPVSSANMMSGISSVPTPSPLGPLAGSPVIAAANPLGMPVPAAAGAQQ
T1 sequence (P67870 whole entry partner): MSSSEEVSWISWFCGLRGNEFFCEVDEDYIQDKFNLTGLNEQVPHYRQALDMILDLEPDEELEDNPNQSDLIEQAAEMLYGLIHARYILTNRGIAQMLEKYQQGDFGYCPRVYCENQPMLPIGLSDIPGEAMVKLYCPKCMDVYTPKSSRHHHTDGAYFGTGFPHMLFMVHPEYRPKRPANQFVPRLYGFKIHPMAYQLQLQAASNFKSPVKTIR

How did the IC50 (MIAPaCa-2 (pancreas)) turn out when `O=C(O)c1ccc2c(c1)cc1c(Nc3ccc(Cl)cc3)nc3ccncc3n12` [Compound 1, 6-((4-chlorophenyl)amino)pyrido[4′,3′:5,6]pyrazino[1,2-a]indole-9-carboxylic acid] was run?
The IC50 was 900 nM.

What about the IC50 (PC3 (prostate)) of the same compound?
The IC50 was 1600 nM.

What about the IC50 (A375 (melanoma)) of the same compound?
The IC50 was 2500 nM.

And the IC50 (MCF7 (breast))?
Its IC50 is 7800 nM.

And the IC50 (H1299 (lung))?
The IC50 was 3100 nM.

And the IC50 (recombinant human CK2)?
The IC50 was 12 nM.

What about the IC50 (HL60 (leukemia)) of the same compound?
The IC50 was 2800 nM.

And the IC50 (HCT116 (colon))?
Its IC50 is 1900 nM.

What about the IC50 (MDA-MB-231 (breast)) of the same compound?
The IC50 was 6100 nM.
